Article PMC2248166, “Quantitative peptide binding motifs for 19 human and mouse MHC class I molecules derived using positional scanning combinatorial peptide libraries” (Immunome Research, 2008)

How the values were obtained:
H-2 D^d = H-2 D^d (Mus musculus, UniProt P01900); assay type: binding
HLA A*3201 = HLA A*3201 (Homo sapiens, UniProt P04439, A270S/D101S/D185E/E176V/E277Q/F133L/G103R/G107R/G231S/H175R/I121M/I218V/I322F/K168Q/L105A/L300P/L318F/M331R/P208A/P217A/Q94H/R106L/R138Q/S129P/T104I/T323A/T345S/V100E/V321M/V358M); assay: biochemical; assay type: binding
HLA B*2705 = HLA B*2705 (Homo sapiens, UniProt P01889, D138H/D201E/E176V/E204Q/G107R/H137Y/K202T/N104T/N87E/Q56L/Q94K/R106L/R155S/R180L/S101D/S121N/S48T/Y140D/Y33H/Y91C); assay type: binding; settings: positional scanning combinatorial 9-mer library; normalized to 1.0 for the best residue at each position
HLA B*5801 = HLA B*5801 (Homo sapiens, UniProt P01889, A329T/C349S/D201E/D98Y/E176V/E187L/E204Q/E69T/G107R/I218V/I90N/K202T/L105A/L119I/N104I/N87E/Q89R/Q94S/R106L/R155S/R180L/R86G/S101N/S121R/S35A/S48A/T118I/V127L/V306I/V36M/Y140S/Y91M); assay type: binding
HLA B*5101 = HLA B*5101 (Homo sapiens, UniProt P01889, A329T/A93T/A95T/C349S/D138N/D201E/D98Y/E187L/E204Q/E69T/G107R/I218V/K202T/L105A/L119W/N104I/Q94N/R106L/R155S/R180L/S101N/S121T/S35A/S48A/V306I/V36M/Y195H/Y91F); assay type: binding
HLA B*1501 = HLA B*1501 (Homo sapiens, UniProt P01889, A329T/A93T/A95T/C349S/D201E/D98Y/E187L/E204Q/E69M/E70A/K202T/N87E/Q94N/R155S/R180W/S121R/S35A/S48A/V306I/V36M/Y140S/Y91S); assay: biochemical; assay type: binding
HLA A*0201 = HLA A*0201 (Homo sapiens, UniProt P04439, D140Y/D185E/D98H/E176V/E277Q/G131W/G231S/I119V/I121R/I166T/I218V/L300P/L318F/N151K/N90K/P208A/P217A/Q86G/Q94H/R138H/R169H/T345S); settings: positional scanning combinatorial 9-mer library; normalized to 1.0 for the best residue at each position
HLA A*3001 = HLA A*3001 (Homo sapiens, UniProt P04439, D140H/D185E/E176W/F33S/G80R/H175R/K168Q/R138E/R41S); assay: biochemical; assay type: binding
H-2 D^b = H-2 D^b (Mus musculus, UniProt P01899); assay type: binding
HLA A*6802 = HLA A*6802 (Homo sapiens, UniProt P04439, A269V/D140Y/D185E/E176V/E277Q/E87N/F33Y/G231S/I121R/I166T/I218V/L180W/L300P/L318F/N151K/P208A/P217A/Q86R/R138H/R169H/S129P/T345S/V36M); assay type: binding
HLA B*5401 = HLA B*5401 (Homo sapiens, UniProt P01889, A329T/C349S/D138N/D201E/E176V/E187T/E204Q/E69G/I76V/K202T/L119W/R155S/R180L/S121T/S35A/S48A/V127L/V306I/V36M/Y140L); assay type: binding
HLA B*3501 = HLA B*3501 (Homo sapiens, UniProt P01889, A329T/A93T/A95T/C349S/D201E/D98Y/E176V/E187L/E204Q/E69T/I218V/K202T/L119I/Q94N/R155S/R180L/S121R/S35A/S48A/T118I/V127L/V306I/V36M/Y140S/Y91F); assay type: binding
H-2 K^k = H-2 K^k (Mus musculus, UniProt P04223); assay type: binding
HLA B*0801 = HLA B*0801 (Homo sapiens, UniProt P01889, A93T/A95T/D138N/E176V/E187T/K202T/Q94N/R180D/S35A/V36M/Y33D/Y91F); assay: biochemical; assay type: binding
HLA B*5802 = HLA B*5802 (Homo sapiens, UniProt P01889, A329T/C349S/D201E/D98Y/E176V/E187L/E204Q/E69T/G107R/I218V/I90N/K202T/L105A/N104I/N87E/Q89R/Q94S/R106L/R155S/R180L/R86G/S101N/S121W/S35A/S48A/V127L/V306I/V36M/Y140S/Y91M); assay type: binding
HLA B*0702 = HLA B*0702 (Homo sapiens, UniProt P01889); assay type: binding; settings: positional scanning combinatorial 9-mer library; normalized to 1.0 for the best residue at each position
HLA B*5301 = HLA B*5301 (Homo sapiens, UniProt P01889, A329T/A93T/A95T/C349S/D201E/D98Y/E176V/E187L/E204Q/E69T/G107R/I218V/K202T/L105A/L119I/N104I/Q94N/R106L/R155S/R180L/S101N/S121R/S35A/S48A/T118I/V127L/V306I/V36M/Y140S/Y91F); assay type: binding
HLA B*1503 = HLA B*1503 (Homo sapiens, UniProt P01889, A329T/A93T/A95T/C349S/D201E/D98Y/E187L/E204Q/K202T/N87E/Q94N/R155S/R180L/S121R/S35A/V306I/V36M/Y140S/Y91S); assay: biochemical; assay type: binding

Sequence of H-2 K^k (P01887 21-119): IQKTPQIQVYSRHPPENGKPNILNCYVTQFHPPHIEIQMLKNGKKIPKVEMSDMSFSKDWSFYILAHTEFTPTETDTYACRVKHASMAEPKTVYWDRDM
Sequence of H-2 K^k (P04223 22-369): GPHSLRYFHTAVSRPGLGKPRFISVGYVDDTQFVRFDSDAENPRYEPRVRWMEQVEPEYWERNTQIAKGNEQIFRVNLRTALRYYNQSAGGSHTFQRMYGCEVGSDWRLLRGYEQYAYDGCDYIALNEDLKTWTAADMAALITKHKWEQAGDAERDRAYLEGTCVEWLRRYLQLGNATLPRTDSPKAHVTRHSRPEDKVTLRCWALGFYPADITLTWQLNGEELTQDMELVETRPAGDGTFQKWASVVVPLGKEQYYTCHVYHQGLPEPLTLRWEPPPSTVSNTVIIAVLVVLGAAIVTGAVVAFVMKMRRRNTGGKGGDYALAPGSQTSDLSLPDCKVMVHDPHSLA
Sequence of H-2 D^b (P01887 21-119): as the sequence (P01887 21-119) above
Sequence of H-2 D^b (P01899 25-362): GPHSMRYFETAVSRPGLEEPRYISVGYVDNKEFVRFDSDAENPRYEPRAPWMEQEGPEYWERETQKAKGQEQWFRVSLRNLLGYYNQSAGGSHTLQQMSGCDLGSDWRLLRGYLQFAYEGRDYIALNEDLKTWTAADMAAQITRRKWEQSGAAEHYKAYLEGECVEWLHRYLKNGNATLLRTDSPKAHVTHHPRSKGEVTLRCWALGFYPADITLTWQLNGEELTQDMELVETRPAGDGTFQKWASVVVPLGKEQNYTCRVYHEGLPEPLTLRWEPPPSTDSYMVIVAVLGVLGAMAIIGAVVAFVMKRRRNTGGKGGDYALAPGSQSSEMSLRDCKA
Sequence of H-2 D^d (P01900 whole entry, looked up): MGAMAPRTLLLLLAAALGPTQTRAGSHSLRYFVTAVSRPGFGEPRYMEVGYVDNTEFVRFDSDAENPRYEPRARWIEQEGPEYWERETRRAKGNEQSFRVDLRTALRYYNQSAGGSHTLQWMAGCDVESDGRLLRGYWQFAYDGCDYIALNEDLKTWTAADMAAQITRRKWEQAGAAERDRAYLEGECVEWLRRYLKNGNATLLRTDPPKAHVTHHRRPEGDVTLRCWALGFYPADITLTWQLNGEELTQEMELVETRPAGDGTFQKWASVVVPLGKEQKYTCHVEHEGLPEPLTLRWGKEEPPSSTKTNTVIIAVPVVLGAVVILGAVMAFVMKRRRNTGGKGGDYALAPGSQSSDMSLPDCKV

Sequence	Normalized average relative binding affinity (ARB), H-2 Dd (H-2 D^d)	Normalized average relative binding affinity (ARB), HLA A*3201 (HLA A*3201)	Normalized average relative binding affinity (ARB), HLA B*2705 (HLA B*2705)	Normalized average relative binding affinity (ARB), HLA B*5801 (HLA B*5801)	Normalized average relative binding affinity (ARB), HLA B*5101 (HLA B*5101)	Normalized average relative binding affinity (ARB), HLA B*1501 (HLA B*1501)	Normalized average relative binding affinity (ARB), HLA A*0201 (HLA A*0201)	Normalized average relative binding affinity (ARB), HLA A*3001 (HLA A*3001)	Normalized average relative binding affinity (ARB), H-2 Db (H-2 D^b)	Normalized average relative binding affinity (ARB), HLA A*6802 (HLA A*6802)	Normalized average relative binding affinity (ARB), HLA B*5401 (HLA B*5401)	Normalized average relative binding affinity (ARB), HLA B*3501 (HLA B*3501)	Normalized average relative binding affinity (ARB), H-2 Kk (H-2 K^k)	Normalized average relative binding affinity (ARB), HLA B*0801 (HLA B*0801)	Normalized average relative binding affinity (ARB), HLA B*5802 (HLA B*5802)	Normalized average relative binding affinity (ARB), HLA B*0702 (HLA B*0702)	Normalized average relative binding affinity (ARB), HLA B*5301 (HLA B*5301)	Normalized average relative binding affinity (ARB), HLA B*1503 (HLA B*1503)
XHXXXXXXX [3064.0027]	0.061	0.047	0.0065	0.061	0.029	0.015	0.0016	0.082	0.099	0.0031	0.0014	0.0078	0.0052	0.028	0.030	0.0028	0.0036	0.16
HXXXXXXXX [3064.0007]	0.21	0.38	0.49	0.43	0.15	0.59	0.0048	0.49	0.17	0.53	0.34	1.0	0.91	0.18	0.026	0.80	1.0	0.20
SXXXXXXXX [3064.0016]	0.24	0.39	0.19	0.16	0.051	0.42	0.10	0.32	0.12	0.41	0.056	0.10	0.54	1.0	0.097	0.35	0.055	0.50
XFXXXXXXX [3064.0025]	0.074	0.012	0.0016	0.097	0.086	0.099	0.0041	0.30	0.086	0.017	0.00055	0.012	0.016	0.14	0.030	0.0028	0.018	0.0062
